The text below walks through data of patent US20230127559A1, “PEPTIDE ANALOGS AND USE OF SAME IN TREATING DISEASES, DISORDERS OR CONDITIONS ASSOCIATED WITH MUTANT P53 PROTEIN” (YEDA RESEARCH AND DEVELOPMENT CO. LTD., priority 2020, published 2023).

By IC50 is commonly meant the point on the concentration scale where inhibition reaches its midpoint.

Data set [1] deals with panel of cell lines expressing mutp53. The class given is cell-based. The settings on record: for IC50: 48 h. As for the experimental part:
(§1) Cells were cultured in 96 wells plates with 2500-4000 cells/well. Serial dilutions of different peptides were added and the plates incubated for additional 48 h at 37° C. Then medium was removed and cell viability was determined by staining the cells with crystal violet (0.05%) in methanol/PBS (1:5, v/v), for 10 min, followed by 3 washes with PBS. 10% acetic acid was added to each well for 10 min. OD was determined at 595 nm.
(§2) The IC50 tables presented in FIGS. 17-20 are from several representative experiments performed on cell lines expressing several p53 hotspot mutations, as well as control non-transformed cells:
Proline residue position—Based on alanine scanning and molecular dynamics analyses, it is believed that the proline residue at the 6th position from the N-terminal is critical for the peptide's 3D structure and provides some rigidity required for peptide binding and activity. Therefore, it was hypothesized that a change in orientation or tetrahedral angle might increase the affinity of the peptide for p53. Six new peptides were synthesized replacing this proline residue with proline analogs (pCAPs 708-712, and pCAP-716, SEQ ID NOS: 6-10 and 14, respectively). This set of peptides was tested for activity on a panel of cell lines expressing mutp53, and compared it to pCAP-674 (SEQ ID NO: 27) and to the scrambled sequence peptides pCAP-721 (SEQ ID NO: 19) and pCAP-722 (SEQ ID NO: 20).

For data set [2], the system named is PANC1 (pancreatic carcinoma) cells, p53R273H. It is filed as cell-based. As for the experimental part:
as §1
(§3) The IC50 tables presented in FIGS. 17-20 are from several representative experiments performed on cell lines expressing several p53 hotspot mutations, as well as control non-transformed cells: […]

Data set [3] concerns MIA PaCa-2 (pancreatic carcinoma) cells, p53R248W. The class given is cell-based. As for the experimental part: as §1, §3
In data set [4] the test system is SW-480 (colon carcinoma) cells, p53R273H, P309S. The class given is cell-based. As for the experimental part: as §1, §3
Data set [5] has as its system WI38 (non-transformed fibroblasts) cells, wtp53. It is filed as cell-based. As for the experimental part: as §1, §3
The nature of data set [6]: Pharmacokinetic profile, LC-MS of peptide concentration in plasma. The class given is in vivo, mice. As for the experimental part:
FIG. 21 depicts PK profile for pCAP-724 (SEQ ID NO:22). LC-MS analysis of peptide concentration in the plasma of injected mice. Each point represents an average reading from 3 mice. Shown are mean plasma concentrations (mpk) of the peptide, following administration either intravenously at 1 mg/kg (IV) or subcutaneously at 5 mg/kg (SC).
Each point represents the average from 3 mice. When administered subcutaneously into mice, pCAP-724 levels reach a maximal concentration after 2 h and a show a half-life (T1/2) of about 10 h. […] From the PK study, it is estimated that a continuous long-acting administration of 20 mg/kg/day of pCAP-724 (SEQ ID NO: 22) will yield a steady state concentration in the blood of about 7-10 μM.

Data set [7] deals with RXF-393 renal cell carcinoma (RCC) cell line, endogenously expressing p53R175H. The experiment in a line: RXF-393 luciferase xenograft model, tumor growth by IVIS. To be noted: for tumor growth, average IVIS signal (in words): subcutaneous injections 20 mg/Kg, 2 days a week. The class given is in vivo, athymic Nude-Foxn1nu mice. The source says: To investigate the efficacy of the lead peptides in vivo, a representative cancer cell line-based xenograft model was employed. The selection of the in vivo model was based on the peptide/cell line combination that yielded the strongest effects in culture: human renal carcinoma RXF-393 cells. The peptide analog pCAP-724 (SEQ ID NO: 22), administered by subcutaneous injections and sustained subcutaneous release, was compared to the control scrambled peptide pCAP-722 (SEQ ID NO: 20). Tumor growth was monitored by luciferase activity, measured in an IVIS200® Spectrum system that combines 2D optical and 3D optical tomography in one platform. The system uses leading optical technology for preclinical imaging research and development, ideal for non-invasive longitudinal monitoring of disease progression in living animals
The RXF-393 renal cell carcinoma (RCC) cell line, endogenously expressing p53R175H, and stably expressing Luciferase was utilized. • 1. 0.75×10^6 cells in 50% HBSS 50% Cultrex (1000) were injected subcutaneously, into both hips of athymic Nude-Foxn1nu mice (6 weeks old). • 2. Tumor growth over time was measured by live imaging, using the […] system. Exposure time was calibrated to 20 sec and peak luminescence values were taken for each tumor. • 3. 21 and 24 days after injection of cells, when tumors reached visible size (50-100 mm^3) and an average IVIS signal of 10^7 (100-fold over threshold), the mice were randomly divided into several groups (5 or 6 mice per each group), according to the mode of administration and peptides: • Subcutaneous injections, performed 2 days a week for 3-4 weeks (20 mg/Kg). Two injections will be given for each day of treatment 16 h interval to allow effective level of peptide for 24 h. […]
• 4. Tumor growth over time was measured by live imaging, twice a week. The experiment was conducted until tumors reached the maximal allowed size of 1 cm^3, at which time mice were sacrificed, tumors extracted, measured, photographed, and weighed.

The subject of data set [8] is RXF-393 (renal carcinoma) cells, p53R175H. It is filed as cell-based, human. As for the experimental part:
as §1, §2
Fatty acid position. Lead peptides were modified with N-terminal myristic acid to enable the penetration of peptides across the cell membrane. Although myristic acid is usually the default choice for cell permeability, additional options were explored of longer fatty acids and to examine the effect on peptide efficacy in terms of cancer cell killing. A standard crystal violet viability test was performed on human renal carcinoma RXF-393 cells, comparing the original pCAP-553, which has myristic acid (C14), with 4 derivative peptides modified with longer fatty acid chains: palmitic (C16), stearic (C18), […] (C20) and behenic (C22).

Data set [9] has as its system PC9 (lung carcinoma) cells, p53R248Q. It is filed as cell-based. As for the experimental part: as §1, §3

Read-outs that look alike come from different tables or passages of the source. Where a SMILES comes first, the peptide text is derived from it. Bridges are numbered along the chain shown (N, C = ends). [ ]: non-standard residue; d: D form. The star is where a group is joined. Stearoyl = CCCCCCCCCCCCCCCCCC(=O)*; Dab = NCC[C@H](N)C(=O)O; Dmp = di-methyl proline

As to `CCCCCCCCCCCCCCCCCC(=O)N[C@@H](CCCNC(=N)N)C(=O)N[C@@H](CCCNC(=N)N)C(=O)N[C@@H](Cc1c[nH]cn1)C(=O)N[C@@H](CO)C(=O)N[C@@H](C(=O)N1CCC[C@@H]1C(=O)N[C@@H](CCN)C(=O)N1CCC[C@H]1C(=O)N[C@@H](CC(=O)O)C(=O)NCC(=O)N[C@@H](CCC(=O)O)C(=O)N[C@@H](C)C(=O)O)C(C)C` [pCAP-720, str-RRHSvp(Dab)PDGEA] (Stearoyl-RRHS[dV][dP][Dab]PDGEA-OH; C-terminus assumed), the “activity in viability assays compared with other peptides (in words)” value in data set [1] is given as “comparable activity to pCAP-717”. The half-maximal inhibitory concentration (IC50) in data set [2] (48 h) came to 1.24 µM; in data set [3] (48 h), 0.3 µM; in data set [4] (48 h), 1.2 µM; in [5] (48 h), 32 µM.

For the molecule `CCCCCCCCCCCCCCCCCC(=O)N[C@@H](CC(=O)O)C(=O)N1CCC[C@H]1C(=O)N[C@@H](Cc1c[nH]cn1)C(=O)N[C@H]1CCCCNC(=O)[C@H](CCCNC(=N)N)NC(=O)[C@H](CCN)NC(=O)[C@H](CCCNC(=N)N)NC(=O)[C@@H]2CCCN2C(=O)[C@H](CO)NC1=O` [pCAP-725, str-DPHKSPR(Dab)R-Cyc, reference compound] (Stearoyl-DPHKSPR[Dab]R; lactam 4-C), the IC50 is over 40 µM in [2] (48 h), over 30 µM in data set [3] (48 h), over 30 µM in [4] (48 h) and over 40 µM in data set [5] (48 h).

`CCCCCCCCCCCCCCCCCC(=O)N[C@@H](CCCNC(=N)N)C(=O)N[C@@H](CCCNC(=N)N)C(=O)N[C@@H](Cc1c[nH]cn1)C(=O)N[C@@H](CO)C(=O)N[C@@H]1CCCCNC(=O)[C@H](CC(=O)O)NC(=O)[C@@H]2CCCN2C(=O)[C@H](CCN)NC(=O)[C@H]2CCCN2C1=O` [pCAP-724, str-RRHSkp(Dab)PD-Cyc] (Stearoyl-RRHS[dK][dP][Dab]PD; lactam 5-C): the “estimated steady state concentration in the blood” value in [6] (continuous long-acting administration of 20 mg/kg/day) is 7 to 10 µM. Besides, the half-life in [6] (mouse, in vivo, sc, 5 mg/kg, administered subcutaneously into mice, read-out: half-life (T1/2) (converted)) is about 10 h. For the same molecule, in data set [6] (mouse, plasma, sc, 5 mg/kg, administered subcutaneously into mice, read-out: time of maximal plasma concentration), the Tmax turned out to be 2 h. Moreover, the “activity in viability assays compared with other peptides (in words)” value in data set [1] is on record as “modest increase in activity compared with pCAP-713”. Besides, the 50% inhibitory concentration (IC50) is 0.1 to 1 µM in data set [1]; 1.02 µM in data set [2] (48 h); 0.25 µM in data set [3] (48 h); 0.65 µM in data set [4] (48 h); 32 µM in data set [5] (48 h). Besides, in data set [7] (Alzet mini pumps 20 mg/Kg/Day SC continuous, within 14 days), the “decrease in tumor signal (IVIS)” value amounted to 5 fold. The “tumor growth, average IVIS signal (in words)” value in [7] is “slowed down tumor growth for the first 10 days”.

Consider `CCCCCCCCCCCCCCCCCC(=O)N[C@@H](CC(=O)O)C(=O)N1CCC[C@H]1C(=O)N[C@@H](Cc1c[nH]cn1)C(=O)N[C@@H](C(=O)N[C@@H](CO)C(=O)N1CCC[C@H]1C(=O)N[C@@H](CCCNC(=N)N)C(=O)N[C@@H](CCN)C(=O)N[C@@H](CCCNC(=N)N)C(N)=O)C(C)C` [pCAP-722, str-DPHvSPR(Dab)R-NH2, reference compound] (Stearoyl-DPH[dV]SPR[Dab]R-NH2), for which the 50% inhibitory concentration (IC50) in data set [8] (48 h), in data set [2] (48 h), in data set [9] (48 h) and in data set [5] (48 h) was over 40 µM each time. Moreover, in [7], the “tumor growth, average IVIS signal (in words)” value is listed as “continued its exponential growth”.

Turning to `CCCCCCCCCCCCCCCCCC(=O)N[C@@H](CCCNC(=N)N)C(=O)N[C@@H](CCCNC(=N)N)C(=O)N[C@@H](Cc1c[nH]cn1)C(=O)N[C@@H](CO)C(=O)N[C@@H](C(=O)N1CCC[C@H]1C(=O)N[C@@H](CCN)C(=O)N1CCC[C@H]1C(=O)N[C@@H](CC(=O)O)C(N)=O)C(C)C` [pCAP-717, str-RRHSvP(Dab)PD-NH2] (Stearoyl-RRHS[dV]P[Dab]PD-NH2), the 50% inhibitory concentration (IC50) is 2.15 µM in data set [2] (48 h), 0.3 µM in data set [3] (48 h), 1.2 µM in data set [4] (48 h) and 35 µM in data set [5] (48 h).

For `CCCCCCCCCCCCCCCCCC(=O)N[C@@H](CCCNC(=N)N)C(=O)N[C@@H](CCCNC(=N)N)C(=O)N[C@@H](Cc1c[nH]cn1)C(=O)N[C@@H](CO)C(=O)N[C@H]1CCCCNC(=O)[C@H](CC(=O)O)NC(=O)[C@@H]2CCCN2C(=O)[C@H](CCN)NC(=O)[C@@H]2CCCN2C1=O` [pCAP-713, str-RRHSKP(Dab)PD-Cyc] (Stearoyl-RRHSKP[Dab]PD; lactam 5-C), in data set [1], the “activity in viability assays compared with other peptides (in words)” value is “highest activity” and the IC50 fell in the range of 0.1 to 1 µM. Further, in [1] (FIGS. 18-20), the “increase in activity over pCAP-674” value is 1.5-3 folds and the “increase in activity over the original pCAP-553” value is on record as 4-10 folds. In addition, in data set [2] (48 h), the midpoint of inhibition, the IC50, lay at 1.05 µM. This molecule also came in with a 50% inhibitory concentration (IC50) in data set [3] (48 h) of 0.3 µM.

Turning to “str-RRHSv(Dmp)(Dab)PD-NH2 (Stearoyl-RRHS[dV][Dmp][Dab]PD-NH2) [pCAP-716, Dmp—Di-methyl proline]”, the “activity in viability assays compared with other peptides (in words)” value is recorded as “consistently modestly improved activity over pCAP-674” in data set [1] and “highest activity” in data set [1] (listed as 716). Moreover, the 50% inhibitory concentration (IC50) in data set [8] (FIG. 19, read-out: RXF IC50) stood at 0.42 µM; in [8] (FIG. 20, read-out: RXF 393 IC50), 0.3 µM; in data set [2] (FIG. 19, read-out: PANCI IC50) it was 2 µM; in data set [9] (FIG. 19, read-out: PC9 IC50), 0.63 µM; in data set [9] (FIG. 20, read-out: PC9 IC50), 0.7 µM; in [3] (FIG. 20, read-out: MIAPaca IC50) it was 0.3 µM. In addition, the IC50 was determined as 1 µM in data set [4] (FIG. 20, read-out: SW-480 IC50) and 33 µM in data set [5] (FIG. 19, read-out: WI38 IC50).
